Laboratory results as given in patent US9309200B2, “Benzazepine derivatives, pharmaceutical compositions containing them, and their use in therapy” (AbbVie Deutschland GmbH & Co. KG, priority 2011, dated 2016).

Target: T1, human GlyT1c transporter (Homo sapiens, UniProt P48067)
T1 construct: expressed in transfected cells; host or cells: recombinant CHO cells (membranes); the uptake assay names the line hGlyT1c_5_CHO
T1 sequence (P48067 1-706): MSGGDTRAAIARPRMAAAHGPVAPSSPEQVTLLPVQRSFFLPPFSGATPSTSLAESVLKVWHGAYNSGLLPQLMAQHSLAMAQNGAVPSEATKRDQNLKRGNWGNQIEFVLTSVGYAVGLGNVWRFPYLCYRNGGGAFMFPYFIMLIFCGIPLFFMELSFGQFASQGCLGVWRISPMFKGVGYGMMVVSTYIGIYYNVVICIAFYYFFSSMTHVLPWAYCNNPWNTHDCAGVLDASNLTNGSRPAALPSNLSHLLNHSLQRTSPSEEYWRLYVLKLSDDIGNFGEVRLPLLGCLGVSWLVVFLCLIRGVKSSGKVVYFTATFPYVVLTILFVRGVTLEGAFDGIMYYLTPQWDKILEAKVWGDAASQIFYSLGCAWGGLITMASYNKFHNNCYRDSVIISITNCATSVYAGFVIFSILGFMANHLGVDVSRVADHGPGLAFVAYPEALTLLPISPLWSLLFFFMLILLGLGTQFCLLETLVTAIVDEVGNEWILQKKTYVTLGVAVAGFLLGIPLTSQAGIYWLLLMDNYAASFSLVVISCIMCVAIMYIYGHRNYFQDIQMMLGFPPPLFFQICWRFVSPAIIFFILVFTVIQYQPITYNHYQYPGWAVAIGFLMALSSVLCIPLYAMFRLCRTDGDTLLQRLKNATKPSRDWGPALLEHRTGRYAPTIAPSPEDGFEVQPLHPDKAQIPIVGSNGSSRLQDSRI
Assay: Radioligand binding assay using recombinant CHO cell membranes expressing human GlyT1
Details: read-out: radioligand binding Kiapp
Method: 2. Radioligand Binding Assays Using Recombinant CHO Cell Membranes Expressing Human GlyT1:
Radioligand binding to human GlyT1c transporter-expressing membranes was determined as described in Mezler et al., Molecular Pharmacology 74:1705-1715, 2008.

Compound	Ki
Cn1cnc(S(=O)(=O)NCc2ccc3c(c2)C(Cc2cccc(F)c2)NCCC3)c1 (centres unmarked) [Example 22, 1-Methyl-1H-imidazole-4-sulfonic acid [1-(3-fluoro-benzyl)-2,3,4,5-tetrahydro-1H-benzo[c]azepin-8-ylmethyl]-amide]	≤ 10 nM
Cn1cnc(S(=O)(=O)NCc2ccc3c(c2)C(Cc2ccc(Cl)cc2)NCCC3)c1 (centres unmarked) [Example 18, 1-Methyl-1H-imidazole-4-sulfonic acid [1-(4-chloro-benzyl)-2,3,4,5-tetrahydro-1H-benzo-[c]azepin-8-ylmethyl]-amide]	≤ 1000 nM
CCS(=O)(=O)NCCOc1ccc2c(c1)C(Cc1cccc(F)c1)NCCC2 (centres unmarked) [Example 25, Ethanesulfonic acid {2-[1-(3-fluoro-benzyl)-2,3,4,5-tetrahydro-1H-benzo[c]azepin-8-yloxy]-ethyl}-amide]	≤ 1000 nM
CN1CCCc2ccc(OCCNS(=O)(=O)c3cnn(C)c3)cc2C1Cc1ccccc1 (centres unmarked) [Example 7, 1-Methyl-1H-pyrazole-4-sulfonic acid [2-(1-benzyl-2-methyl-2,3,4,5-tetrahydro-1H-benzo[c]azepin-8-yloxy)-ethyl]amide]	≤ 10 nM
CCS(=O)(=O)NCc1ccc2c(c1)C(Cc1cccc(F)c1)NCCC2 (centres unmarked) [Example 29, Ethanesulfonic acid [1-(3-fluoro-benzyl)-2,3,4,5-tetrahydro-1H-benzo[c]azepin-8-ylmethyl]-amide]	≤ 1000 nM
CCCS(=O)(=O)NCCOc1ccc2c(c1)C(Cc1cccc(F)c1)NCCC2 (centres unmarked) [Example 23, Propane-1-sulfonic acid {2-[1-(3-fluoro-benzyl)-2,3,4,5-tetrahydro-1H-benzo[c]azepin-8-yloxy]-ethyl}-amide]	≤ 100 nM
O=S(=O)(CC1CC1)NCc1ccc2c(c1)C(Cc1ccc(Cl)cc1)NCCC2 (centres unmarked) [Example 15, N-[1-(4-Chloro-benzyl)-2,3,4,5-tetrahydro-1H-benzo[c]azepin-8-ylmethyl]-C-cyclopropyl-methanesulfonamide]	≤ 10000 nM
CN1CCCc2ccc(OCCNS(=O)(=O)c3cn(C)cn3)cc2C1Cc1ccccc1 (centres unmarked) [Example 6, 1-Methyl-1H-imidazole-4-sulfonic acid [2-(1-benzyl-2-methyl-2,3,4,5-tetrahydro-1H-benzo[c]azepin-8-yloxy)-ethyl]-amide]	≤ 10 nM
O=S(=O)(CC1CC1)NCCOc1ccc2c(c1)C(Cc1cccc(F)c1)NCCC2 (centres unmarked) [Example 24, C-Cyclopropyl-N-{2-[1-(3-fluoro-benzyl)-2,3,4,5-tetrahydro-1H-benzo[c]azepin-8-yloxy]-ethyl}-methanesulfonamide]	≤ 100 nM
CCCS(=O)(=O)NCCOc1ccc2c(c1)C(Cc1ccc(Cl)cc1)NCCC2 (centres unmarked) [Example 8, Propane-1-sulfonic acid {2-[1-(4-chlorobenzyl)-2,3,4,5-tetrahydro-1H-benzo[c]azepin-8-yloxy]-ethyl}-amide]	≤ 1000 nM
O=S(=O)(CC1CC1)NCc1ccc2c(c1)C(Cc1cccc(F)c1)NCCC2 (centres unmarked) [Example 28, C-Cyclopropyl-N-[1-(3-fluoro-benzyl)-2,3,4,5-tetrahydro-1H-benzo[c]azepin-8-ylmethyl)-methanesulfonamide]	≤ 100 nM
O=S(=O)(CC1CC1)NCCOc1ccc2c(c1)C(Cc1ccccc1)NCCC2 (centres unmarked) [Example 13, N-{2-[1-Benzyl-2,3,4,5-tetrahydro-1H-benzo[c]azepin-8-yloxy]-ethyl}-C-cyclopropyl-methanesulfonamide]	≤ 100 nM
Cn1cnc(S(=O)(=O)NCCOc2ccc3c(c2)C(Cc2cccc(F)c2)NCCC3)c1 (centres unmarked) [Example 20, 1-Methyl-1H-imidazole-4-sulfonic acid {2-[1-(3-fluoro-benzyl)-2,3,4,5-tetrahydro-1H-benzo[c]azepin-8-yloxy]-ethyl}-amide]	≤ 10 nM
CCCS(=O)(=O)NCc1ccc2c(c1)C(Cc1ccc(Cl)cc1)NCCC2 (centres unmarked) [Example 14, Propane-1-sulfonic acid [1-(4-chloro-benzyl)-2,3,4,5-tetra-hydro-1H-benzo[c]azepin-8-ylmethyl]-amide]	≤ 1000 nM
Cn1cnc(S(=O)(=O)NCCOc2ccc3c(c2)C(Cc2ccccc2)NCCC3)c1 (centres unmarked) [Example 2, N-(2-(1-Benzyl-2,3,4,5-tetrahydro-1H-benzo[c]azepin-8-yloxy)ethyl)-1-methyl-1H-imidazole-4-sulfonamide]	≤ 100 nM
Cn1cc(S(=O)(=O)NCc2ccc3c(c2)C(Cc2cccc(F)c2)NCCC3)cn1 (centres unmarked) [Example 26, 1-Methyl-1H-pyrazole-4-sulfonic acid [1-(3-fluoro-benzyl)-2,3,4,5-tetrahydro-1H-benzo[c]azepin-8-ylmethyl]-amide]	≤ 10 nM
Cn1cc(S(=O)(=O)NCCOc2ccc3c(c2)C(Cc2ccccc2)NCCC3)cn1 (centres unmarked) [Example 3, N-(2-(1-Benzyl-2,3,4,5-tetrahydro-1H-benzo[c]azepin-8-yloxy)ethyl)-1-methyl-1H-pyrazole-4-sulfonamide]	≤ 10 nM
CCS(=O)(=O)NCCOc1ccc2c(c1)C(Cc1ccc(Cl)cc1)NCCC2 (centres unmarked) [Example 9, Ethanesulfonic acid {2-[1-(4-chlorobenzyl)-2,3,4,5-tetrahydro-1H-benzo[c]azepin-8-yloxy]-ethyl}-amide]	≤ 10000 nM

Continued, values first:

Ki	Compound
≤ 1000 nM	CCCS(=O)(=O)NCc1ccc2c(c1)C(Cc1ccccc1)NCCC2 (centres unmarked) [Example 32, Propane-1-sulfonic acid (1-benzyl-2,3,4,5-tetrahydro-1H-benzo[c]-azepin-8-ylmethyl)-amide]
≤ 100 nM	CCN1CCCc2ccc(CNS(=O)(=O)c3cn(C)cn3)cc2C1Cc1ccccc1 (centres unmarked) [Example 39, 1-Methyl-1H-imidazole-4-sulfonic acid (1-benzyl-2-ethyl-2,3,4,5-tetrahydro-1H-benzo[c]azepin-8-ylmethyl)-amide]
≤ 100 nM	CN1CCCc2ccc(CNS(=O)(=O)c3cn(C)cn3)cc2C1Cc1ccccc1 (centres unmarked) [Example 38, 1-Methyl-1H-imidazole-4-sulfonic acid (1-benzyl-2-methyl-2,3,4,5-tetrahydro-1H-benzo[c]azepin-8-ylmethyl)-amide]
≤ 10 nM	CCCN1CCCc2ccc(CNS(=O)(=O)c3cn(C)cn3)cc2C1Cc1ccccc1 (centres unmarked) [Example 37, 1-Methyl-1H-imidazole-4-sulfonic acid (1-benzyl-2-propyl-2,3,4,5-tetrahydro-1H-benzo[c]azepin-8-ylmethyl)-amide]
≤ 10000 nM	Cn1cnc(S(=O)(=O)NCc2ccc3c(c2)C(C(C)(C)c2ccccc2)NCCO3)c1 (centres unmarked) [Example 47, 1-Methyl-1H-imidazole-4-sulfonic acid [5-(1-methyl-1-phenyl-ethyl)-2,3,4,5-tetrahydro-benzo[f][1,4]oxazepin-7-ylmethyl]-amide]
≤ 100 nM	O=S(=O)(CC1CC1)NCc1ccc2c(c1)C(Cc1ccccc1)NCCC2 (centres unmarked) [Example 30, N-(1-Benzyl-2,3,4,5-tetrahydro-1H-benzo[c]azepin-8-ylmethyl)-C-cyclopropyl-methane-sulfonamide]
≤ 10000 nM	CCS(=O)(=O)NCc1ccc2c(c1)C(Cc1ccccc1)NCCC2 (centres unmarked) [Example 33, Ethanesulfonic acid (1-benzyl-2,3,4,5-tetrahydro-1H-benzo[c]-azepin-8-ylmethyl)-amide]
≤ 100 nM	CN(Cc1ccc2c(c1)C(Cc1ccccc1)NCCC2)S(=O)(=O)c1cn(C)cn1 (centres unmarked) [Example 36, 1-Methyl-1H-imidazole-4-sulfonic acid (1-benzyl-2,3,4,5-tetrahydro-1H-benzo[c]azepin-8-ylmethyl)-methyl-amide]
